Results: patent US8974807B2, “Active agent combinations” (Bayer Cropscience AG, priority 2000, dated 2015)

Assays:
[1] = system: whitefly (Trialeurodes vaporariorum); assay: Trialeurodes test (Example 2), sprayed red sage infested by whitefly, evaluated at 15, 19 and 25 days; format: in vivo; settings: 100 g/ha
Method: (§1) To produce a suitable preparation of active compound, a commercial formulation of active compound or active compound combination is mixed with water until the desired concentration is reached.
Red sage (Lantana camara) which is heavily infested by the whitefly (Trialeurodes vaporariorum) is sprayed in intervals of 7 days in each case with a preparation of active compound at the desired application rate.
Evaluation is carried out 15, 19 and 25 days after the second treatment. 100% means that all flies have been […], whilst 0% means that none of the flies have been killed.

[2] = system: whitefly (Trialeurodes vaporariorum); assay: Trialeurodes test (Example 1), sprayed red sage infested by all stages of whitefly; format: in vivo; settings: 100 g/ha, sprayed on Lantana camara at 7-day intervals; evaluation 15 days after the second treatment
Method: as §1
Red sage (Lantana camara) which is heavily infested by all stages of the whitefly (Trialeurodes vaporariorum) is sprayed in intervals of 7 days in each case with a preparation of active compound at the desired application rate.
Evaluation is carried out 15 days after the second treatment. 100% means that all flies have been killed, whilst 0% means that none of the flies have been killed.

N#C/N=C1\SCCN1Cc1ccc(Cl)nc1 [(16) thiacloprid, thiacloprid]
Kill rate in % 15 days after the second treatment ([1]; 15 days after the second treatment): 72.8% | Kill rate in % 19 days after the second treatment ([1]; 19 days after the second treatment): 39.5% | Kill rate in % 25 days after the second treatment ([1]; 25 days after the second treatment): 0% | Kill rate in % [2]: 72.8%
